Assay results as given in ChEMBL document CHEMBL4266008, “Exploring Halogen Bonds in 5-Hydroxytryptamine 2B Receptor-Ligand Interactions” (ACS Med Chem Lett, 2018).
The source made the active and inactive calls. The calls are words filed in the database; no cut-off is given here.

How the values were obtained:
[1] = molecular target: T1, 5-hydroxytryptamine receptor 2B (Homo sapiens, UniProt P41595); experiment: (§1) Antagonist activity at 5HT2B (unknown origin) expressed in CHOK1 cells assessed as inhibition of agonist-induced effect preincubated for 60 mins at 37 degC followed by 15 mins incubation at room temperature and subsequent agonist addition measured for 100 secs by fluorescence assay; format: functional, cell-based
[2] = molecular target: T1, 5-hydroxytryptamine receptor 2B; experiment: Displacement of [3H]LSD from 5HT2B (unknown origin) after 1.5 hrs by microbeta scintillation counting method
[3] = molecular target: T1, 5-hydroxytryptamine receptor 2B; experiment: as §1, with “effect at 10 uM” for “effect”, “assay relative to control” for “assay”; format: functional, cell-based
[4] = tested on: Mus musculus; experiment: Protection against castor oil-induced diarrhea in C57BL/6 mouse assessed as improvement in fecal output at 10 mg/kg, po pretreated for 15 mins followed by castor oil addition measured over 4 hrs; format: functional, organism-based
[5] = tested on: Mus musculus; experiment: Protection against castor oil-induced diarrhea in C57BL/6 mouse assessed as improvement in body weight at 10 mg/kg, po pretreated for 15 mins followed by castor oil addition measured over 4 hrs; format: functional, organism-based
[6] = tested on: Mus musculus; experiment: Protection against castor oil-induced diarrhea in C57BL/6 mouse assessed as improvement in stool consistency at 10 mg/kg, po pretreated for 15 mins followed by castor oil addition measured over 4 hrs; format: functional, organism-based

T1 sequence (P41595 whole entry): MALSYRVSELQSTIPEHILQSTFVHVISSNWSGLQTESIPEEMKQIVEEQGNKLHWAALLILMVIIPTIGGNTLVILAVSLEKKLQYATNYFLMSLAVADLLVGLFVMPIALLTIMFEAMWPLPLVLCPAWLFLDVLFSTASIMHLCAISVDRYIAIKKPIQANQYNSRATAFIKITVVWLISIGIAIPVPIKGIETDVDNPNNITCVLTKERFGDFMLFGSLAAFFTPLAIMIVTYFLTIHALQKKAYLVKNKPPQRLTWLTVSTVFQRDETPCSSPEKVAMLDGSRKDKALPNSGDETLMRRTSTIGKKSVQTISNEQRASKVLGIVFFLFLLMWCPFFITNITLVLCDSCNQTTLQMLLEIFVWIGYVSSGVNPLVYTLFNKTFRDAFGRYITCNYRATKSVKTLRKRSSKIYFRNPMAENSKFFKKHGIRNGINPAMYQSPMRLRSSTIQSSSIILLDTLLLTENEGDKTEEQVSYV

Row | IC50 [1] | Ki [2] | SMILES | also measured
1 | 74.9 nM |  | NC1=NC2(CCCCC2)NC(Nc2cc(F)cc(Br)c2)=N1 | 
2 |  | 3 nM | CN(C)CC/C=C1\c2ccc(Cl)cc2COc2ccccc21 | 
3 |  | 313 nM | NC1=NC2(CCCCC2)NC(Nc2cccc(O)c2)=N1 | inhibition [3]: < 50%
4 | 459 nM | 19.8 nM | Cc1cccc(NC2=NC(N)=NC3(CCCCC3)N2)c1 | 
5 |  | 2.5 nM | CN(C)CC/C=C1\c2ccc(Br)cc2COc2ccccc21 | Activity [4]: Active; Activity [5]: Active; Activity [6]: Active
6 | 23.3 nM | 1.7 nM | NC1=NC2(CCCCC2)NC(Nc2cccc(I)c2)=N1 | 
7 |  |  | CN(C)CC/C=C1\c2ccccc2COc2ccccc21 [E-DOXEPIN] | Activity [4]: Active; Activity [6]: Active
8 | 46.9 nM | 6.3 nM | NC1=NC2(CCCCC2)NC(Nc2cccc(Cl)c2)=N1 | 
9 | 215 nM |  | NC1=NC2(CCCCC2)NC(Nc2cc(Br)cc(Br)c2)=N1 | 
10 |  | 16.6 nM | CN(C)CC/C=C1\c2ccc(F)cc2COc2ccccc21 | 
11 | 1960 nM |  | CCOC(=O)c1cc(Br)cc(NC2=NC(N)=NC3(CCCCC3)N2)c1 | 
12 | 1640 nM | 151 nM | NC1=NC2(CCCCC2)NC(Nc2ccccc2)=N1 | 
13 | 403 nM | 53.3 nM | NC1=NC2(CCCCC2)NC(Nc2cccc(F)c2)=N1 | 
14 | 35.4 nM | 5.8 nM | NC1=NC2(CCCCC2)NC(Nc2cccc(Br)c2)=N1 | 
